Reference: patent publication US6461997B1, “Triazole sulfones having herbicidal activity” (Monsanto Technology LLC, priority 1999, dated 2002)

Columns and labels:
[1] = system: AGSST (creeping bentgrass); assay: Pre-emergence herbicidal activity, cool season; type: in vivo, Agrostis stolonifera; details: GR80 = lowest tested rate (300, 100, 30, 10 g/ha) with 80% or greater inhibition; approx. 14 days after treating; 18/13° C.
Procedure: (§1) Tables 5 to 8 summarize results of tests conducted as described below to determine the pre-emergence herbicidal activity, in the form of a GR80 value, of illustrative compounds of this invention. […] Compounds of the invention were typically applied at rates of 300, 100, 30, and 10 g/ha. Where herbicidal activity was evident but 80% inhibition was not achieved at the highest rate tested, an asterisk (*) is shown in the following tables.
(§2) The pre-emergence tests were conducted by the following procedure. Topsoil was sieved to pass through a 1.27 cm screen. Fertilizer was added to the topsoil and the mixture was then sterilized by heating. The topsoil mixture was placed in a pot and compacted to a depth of 1.0 to 1.25 cm from the top of the pot. Seeds of each of several monocotyledonous and dicotyledonous annual plant species were placed on top of the soil. Additional soil was subsequently placed over the seeds to level-fill the pot. A known amount of each test compound dissolved or suspended in an appropriate organic solvent was diluted with a 50:50 mix of acetone and water and applied to the surface of the soil. After treatment the plants were placed in a greenhouse where they received 0.64 cm of overhead irrigation. All subsequent watering consisted of a light overhead mist and/or subirrigation as needed for germination and growth. Tables 5 and 6 below relate to warm season plant species which were placed after pre-emergence treatment in a greenhouse with a 30/21° C. day/night temperature regime. Tables 7 and 8 below relates to cool season plant species placed after pre-emergence treatment in a greenhouse or growth chamber with an 18/13° C. day/night temperature regime.
(§3) Approximately 14 days after planting and treating, the plants were observed and herbicidal efficacy recorded as percent inhibition by comparison with untreated plants.
(§4) The plant species usually regarded as weeds which were utilized in the tests are identified in the tables below according to the following legend, in which “d” indicates a dicotyledonous species and “m” a monocotyledonous species. All monocotyledonous species included in the tests herein are grasses.

[2] = system: PANMI (wild proso millet); assay: Pre-emergence herbicidal activity, warm season; type: in vivo, Panicum miliaceum; details: GR80 = lowest tested rate (300, 100, 30, 10 g/ha) with 80% or greater inhibition; approx. 14 days after treating; 30/21° C.
Procedure: as §1, §2, §3, §4

[3] = system: GALAP (catchweed bedstraw); assay: Pre-emergence herbicidal activity, cool season; type: in vivo, Galium aparine; details: lowest tested rate with 80% or greater inhibition; rates 300, 100, 30, 10 g/ha; about 14 days
Procedure: as §1, §2, §3, §4

DATST (jimsonweed) = assay: Pre-emergence herbicidal activity, warm season; type: in vivo, Datura stramonium; details: GR80 = lowest tested rate (300, 100, 30, 10 g/ha) with 80% or greater inhibition; approx. 14 days after treating; 30/21° C.
Procedure: as §1, §2, §3, §4

POLCO (wild buckwheat) = assay: Pre-emergence herbicidal activity, cool season; type: in vivo, Polygonum convolvulus; details: lowest tested rate with 80% or greater inhibition; rates 300, 100, 30, 10 g/ha; about 14 days
Procedure: as §1, §2, §3, §4

[4] = system: LAMPU (purple deadnettle); assay: Pre-emergence herbicidal activity, cool season; type: in vivo, Lamium purpureum; details: lowest tested rate with 80% or greater inhibition; rates 300, 100, 30, 10 g/ha; about 14 days
Procedure: as §1, §2, §3, §4

[5] = system: VERPE (creeping speedwell); assay: Pre-emergence herbicidal activity, cool season; type: in vivo, Veronica persicaria; details: lowest tested rate with 80% or greater inhibition; rates 300, 100, 30, 10 g/ha; about 14 days
Procedure: as §1, §2, §3, §4

SASKR (russian thistle) = assay: Pre-emergence herbicidal activity, cool season; type: in vivo, Salsola kali; details: lowest tested rate with 80% or greater inhibition; rates 300, 100, 30, 10 g/ha; about 14 days
Procedure: as §1, §2, §3, §4

STEME (common chickweed) = assay: Pre-emergence herbicidal activity, cool season; type: in vivo, Stellaria media; details: lowest tested rate with 80% or greater inhibition; rates 300, 100, 30, 10 g/ha; about 14 days
Procedure: as §1, §2, §3, §4

SINAR (wild mustard) = assay: Pre-emergence herbicidal activity, cool season; type: in vivo, Sinapis arvensis; details: lowest tested rate with 80% or greater inhibition; rates 300, 100, 30, 10 g/ha; about 14 days
Procedure: as §1, §2, §3, §4

ALOMY (blackgrass) = assay: Pre-emergence herbicidal activity, cool season; type: in vivo, Alopecurus myosuroides; details: GR80 = lowest tested rate (300, 100, 30, 10 g/ha) with 80% or greater inhibition; approx. 14 days after treating; 18/13° C.
Procedure: as §1, §2, §3, §4

[6] = system: CHEAL (common lambsquarters); assay: Pre-emergence herbicidal activity, warm season; type: in vivo, Chenopodium album; details: GR80 = lowest tested rate (300, 100, 30, 10 g/ha) with 80% or greater inhibition; approx. 14 days after treating; 30/21° C.
Procedure: as §1, §2, §3, §4

ECHCG (barnyardgrass) = assay: Pre-emergence herbicidal activity, warm season; type: in vivo, Echinochloa crus-galli; details: GR80 = lowest tested rate (300, 100, 30, 10 g/ha) with 80% or greater inhibition; approx. 14 days after treating; 30/21° C.
Procedure: as §1, §2, §3, §4

SETVI (green foxtail) = assay: Pre-emergence herbicidal activity, cool season; type: in vivo, Setaria viridis; details: GR80 = lowest tested rate (300, 100, 30, 10 g/ha) with 80% or greater inhibition; approx. 14 days after treating; 18/13° C.
Procedure: as §1, §2, §3, §4

POROL (common purslane) = assay: Pre-emergence herbicidal activity, warm season; type: in vivo, Portulaca oleracea; details: GR80 = lowest tested rate (300, 100, 30, 10 g/ha) with 80% or greater inhibition; approx. 14 days after treating; 30/21° C.
Procedure: as §1, §2, §3, §4

[7] = system: CIRAR (canada thistle (seedling)); assay: Pre-emergence herbicidal activity, warm season; type: in vivo, Cirsium arvense; details: GR80 = lowest tested rate (300, 100, 30, 10 g/ha) with 80% or greater inhibition; approx. 14 days after treating; 30/21° C.
Procedure: as §1, §2, §3, §4

[8] = system: SORHA (johnsongrass (seedling)); assay: Pre-emergence herbicidal activity, warm season; type: in vivo, Sorghum halepense; details: GR80 = lowest tested rate (300, 100, 30, 10 g/ha) with 80% or greater inhibition; approx. 14 days after treating; 30/21° C.
Procedure: as §1, §2, §3, §4

AMARE (redroot pigweed) = assay: Pre-emergence herbicidal activity, warm season; type: in vivo, Amaranthus retroflexus; details: GR80 = lowest tested rate (300, 100, 30, 10 g/ha) with 80% or greater inhibition; approx. 14 days after treating; 30/21° C.
Procedure: as §1, §2, §3, §4

SETFA (giant foxtail) = assay: Pre-emergence herbicidal activity, warm season; type: in vivo, Setaria faberi; details: GR80 = lowest tested rate (300, 100, 30, 10 g/ha) with 80% or greater inhibition; approx. 14 days after treating; 30/21° C.
Procedure: as §1, §2, §3, §4

Row | SMILES | Pre-emergence activity (GR80) AGSST [1] [g/ha] | Pre-emergence activity (GR80) PANMI [2] [g/ha] | Pre-emergence activity GR80, GALAP [3] | Pre-emergence activity (GR80) DATST (DATST (jimsonweed)) [g/ha] | Pre-emergence activity GR80, POLCO (POLCO (wild buckwheat)) | Pre-emergence activity GR80, LAMPU [4] | Pre-emergence activity GR80, VERPE [5] | Pre-emergence activity GR80, SASKR (SASKR (russian thistle)) | Pre-emergence activity GR80, STEME (STEME (common chickweed)) | Pre-emergence activity GR80, SINAR (SINAR (wild mustard)) | Pre-emergence activity (GR80) ALOMY (ALOMY (blackgrass)) [g/ha] | Pre-emergence activity (GR80) CHEAL [6] [g/ha] | Pre-emergence activity (GR80) ECHCG (ECHCG (barnyardgrass)) [g/ha] | Pre-emergence activity (GR80) SETVI (SETVI (green foxtail)) [g/ha] | Pre-emergence activity (GR80) POROL (POROL (common purslane)) [g/ha] | Pre-emergence activity (GR80) CIRAR [7] [g/ha] | Pre-emergence activity (GR80) SORHA [8] [g/ha] | Pre-emergence activity (GR80) AMARE (AMARE (redroot pigweed)) [g/ha] | Pre-emergence activity (GR80) SETFA (SETFA (giant foxtail)) [g/ha]
1 | CN(Cc1ccccc1)C(=O)n1cnc(S(=O)(=O)C(F)F)n1 [Example 33] | 300 | 300 | [empty] | 300 | [empty] | 30 g/ha | 300 g/ha | 300 g/ha | 100 g/ha | [empty] |  |  |  |  |  |  |  |  | 
2 | CCSC(F)(F)S(=O)(=O)c1ncn(C(=O)N2CCOCC2)n1 [Example 48] |  |  | 300 g/ha | 300 | 300 g/ha | [empty] | [empty] | [empty] | 300 g/ha | [empty] |  |  |  |  |  |  |  |  | 
3 | CN(C)C(=O)n1cnc(S(=O)(=O)C(F)(F)C(F)F)n1 [Example 61] | 100 | 300 | 100 g/ha |  | [empty] | 300 g/ha | 100 g/ha | 100 g/ha | 300 g/ha | 300 g/ha | 100 | 300 | 300 | 300 | 300 | 300 |  |  | 
4 | CN(C(=O)n1cnc(S(=O)(=O)C(F)(F)C(F)F)n1)C1CCCCC1 [Example 67] | 100 | 100 | 300 g/ha |  | 300 g/ha | [empty] | 100 g/ha | [empty] | [empty] | [empty] |  | 100 | 300 | 300 | 300 |  | 300 | 300 | 300
